In patent US7256180B2 (priority 2000, dated 2007):
Read-outs that look alike come from different tables or passages of the source. {C11P} = undecylphosphate group; {Acr} = acridine group

What was measured:
[1] = tested on: HSV-1; assay type: cell-based, Herpes Simplex Virus 1; conditions: BHK cells, oligonucleotide 3.0 μM
[2] = tested on: HSV-1 virus (strain L2); assay type: cell-based, Herpes Simplex Virus 1; conditions: Vero cells, 24 hours
[3] = tested on: HSV-1 (strain CI); assay type: in vivo, mice

In the case of “Free Anti-HSV: CGTTCCTCCTGU, 5′ undecylphosphate and 3′ acridine modified (5' {C11P}, 3' {Acr}, sugars by position and backbone not given here)”, the “HSV-1 Infectious Titre (CPE50/ml) (n = 7)” value (shortened to “HSV-1 Infectious Titre”) [1] is reported as 50 (±14) × 10^2 CPE50/ml, the “HSV-1 Infectious Titre” value ([2]; oligo conc. 0.2 μM) is reported as 0.9 (±0.4) × 10^5 CPE50/ml and the “HSV-1 Infectious Titre” value ([2]; oligo conc. 1.0 μM) is reported as 2.3 (±0.7) × 10^3 CPE50/ml. For the same substance, the “HSV-1 Infectious Titre” value ([2]; oligo conc. 5.0 μM) was 1.6 (±0.4) × 10^2 CPE50/ml, the “Animals Survived/No. of Animals in group, Exp. 1” value ([3]; mouse, in vivo, iv) was 1/10 and the “Animals Survived/No. of Animals in group, Exp. 2” value ([3]; mouse, in vivo, iv) was 1/10. For the same substance, the “Animals Survived/No. of Animals in group, Exp. 3” value ([3]; mouse, in vivo, iv) was 0/10 and the “% Survival” value ([3]; over Exp. 1-3) was 7.0%.
